Measurements as given in ChEMBL document CHEMBL4616678, “Design, Synthesis, and Physicochemical and Pharmacological Profiling of 7-Hydroxy-5-oxopyrazolo[4,3-b]pyridine-6-carboxamide Derivatives with Antiosteoarthritic Activity In Vivo” (J Med Chem, 2020).
≈ marks a conversion by molar mass, not a printed value. Calls of active or inactive are those of the source.

Experiments:
[1] = biological target: T1, Cannabinoid receptor 2 (Homo sapiens, UniProt P34972); test: Antagonist activity at TNF-alpha induced CB2R in human HC-OA cells assessed as decreased in IL-1beta mRNA production preincubated for 1 hr followed by TNF-alpha stimulation measured after 5 hrs in presence of AM-630 by RT-PCR analysis; type: cell-based
T1 sequence (P34972 whole entry): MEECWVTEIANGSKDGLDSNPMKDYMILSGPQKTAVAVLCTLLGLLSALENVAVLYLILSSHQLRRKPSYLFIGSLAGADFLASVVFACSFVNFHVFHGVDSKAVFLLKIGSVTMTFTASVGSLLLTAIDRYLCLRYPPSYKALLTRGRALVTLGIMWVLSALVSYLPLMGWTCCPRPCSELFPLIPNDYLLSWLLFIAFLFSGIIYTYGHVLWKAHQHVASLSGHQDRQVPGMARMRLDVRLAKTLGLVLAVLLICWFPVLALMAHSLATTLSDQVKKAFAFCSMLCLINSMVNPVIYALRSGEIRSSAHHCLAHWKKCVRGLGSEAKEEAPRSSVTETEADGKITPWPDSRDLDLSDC

[2] = Induction of extracellular matrix production in human NHAC-kn cells assessed as sGAG/HYP level at 7.5 uM after 14 days by UV-visible spectrophotometer analysis (reference value: 0.9 +/- 0.2 ug); type: functional
[3] = Induction of extracellular matrix production in human NHAC-kn cells assessed as sGAG level at 7.5 uM after 7 days by UV-visible spectrophotometer analysis (reference value: 11.2 +/- 0.4 ug); type: functional
[4] = Lipophilicity, log P of the compound by UV-vis spectra analysis; type: physicochemical; conditions: octanol/water
[5] = Induction of extracellular matrix production in human NHAC-kn cells assessed as sGAG/HYP level at 7.5 uM after 7 days by UV-visible spectrophotometer analysis (reference value: 0.8 +/- 0.2 ug); type: functional
[6] = Induction of extracellular matrix production in human NHAC-kn cells assessed as sGAG/HYP level at 7.5 uM after 1 day by UV-visible spectrophotometer analysis (reference value: 0.9 +/- 0.1 ug); type: functional
[7] = Cytotoxicity against human NHAC-kn assessed as reduction in cell viability at 7.5 uM after 1 day by Neutral red dye-based UV-visible spectrophotometer analysis (reference value: 46 +/- 6%); type: functional
[8] = Kinetic solubility of the compound at pH 1.0 by HPLC-UV method; type: physicochemical; conditions: buffer, read-out: Kinetic_solubility
[9] = Kinetic solubility of the compound at pH 7.4 by HPLC-UV method; type: physicochemical; conditions: buffer, read-out: Kinetic_solubility
[10] = system: Rattus norvegicus; test: Analgesic activity in MIA induced Wistar rat assessed as hind limb withdrawal threshold at 1 mg/kg, ip injection after 300 mins by PAM test; type: functional, organism-based
[11] = biological target: T1, Cannabinoid receptor 2; test: Displacement of [3H]-CP-55,940 from recombinant human CB2R expressed in HEK293 cell membranes
[12] = Cytotoxicity against human NHAC-kn assessed as reduction in cell viability after 1 to 14 days by Neutral red dye-based UV-visible spectrophotometer analysis; type: functional
[13] = system: Rattus norvegicus; test: Analgesic activity in MIA induced Wistar rat assessed as differences in forces applied between rear left and rear right injured paws at 1 mg/kg, ip injection after 60 mins by KWB test; type: functional, organism-based
[14] = system: Rattus norvegicus; test: Analgesic activity in MIA induced Wistar rat assessed as hind limb withdrawal threshold at 1 mg/kg, ip injection after 300 mins in presence of AM-630 by PAM test; type: functional, organism-based
[15] = Induction of extracellular matrix production in human NHAC-kn cells assessed as HYP level at 7.5 uM after 14 days by UV-visible spectrophotometer analysis (reference value: 14.2 +/- 0.4 ug); type: functional
[16] = Induction of extracellular matrix production in human NHAC-kn cells assessed as sGAG level at 7.5 uM after 1 day by UV-visible spectrophotometer analysis (reference value: 9.3 +/- 0.2 ug); type: functional
[17] = Cytotoxicity against human NHAC-kn assessed as reduction in cell viability at 7.5 uM after 7 days by Neutral red dye-based UV-visible spectrophotometer analysis (reference value: 73 +/- 8%); type: functional
[18] = Induction of extracellular matrix production in human NHAC-kn cells assessed as HYP level at 7.5 uM after 1 day by UV-visible spectrophotometer analysis (reference value: 9.9 +/- 0.3 ug); type: functional
[19] = biological target: T1, Cannabinoid receptor 2; test: Agonist activity at recombinant human CB2R expressed in CHOK1 cells assessed as inhibition of NKH477-stimulated intracellular cAMP levels after 30 mins by chemiluminescent detection based cAMP Hunter assay; type: functional, cell-based, CHO-K1
[20] = Cytotoxicity against human NHAC-kn assessed as reduction in cell viability at 7.5 uM after 14 days by Neutral red dye-based UV-visible spectrophotometer analysis (reference value: 100 +/- 11%); type: functional
[21] = Induction of extracellular matrix production in human NHAC-kn cells assessed as HYP level at 7.5 uM after 7 days by UV-visible spectrophotometer analysis (reference value: 13.2 +/- 0.3 ug); type: functional
[22] = system: Rattus norvegicus; test: Analgesic activity in MIA induced Wistar rat assessed as differences in forces applied between rear left and rear right injured paws at 1 mg/kg, ip injection after 60 mins in presence of AM-630 by KWB test; type: functional, organism-based
[23] = system: NIH3T3; test: Cytotoxicity against mouse NIH/3T3 assessed as reduction in cell viability after 1 to 14 days by Neutral red dye-based UV-visible spectrophotometer analysis; type: functional
[24] = Ionization Constants, pKa of the compound by UV-vis spectra analysis; type: physicochemical
[25] = Induction of extracellular matrix production in human NHAC-kn cells assessed as sGAG level at 7.5 uM after 14 days by UV-visible spectrophotometer analysis (reference value: 12.0 +/- 0.4 ug); type: functional
[26] = biological target: T1, Cannabinoid receptor 2; test: Antagonist activity at TNF-alpha induced CB2R in human HC-OA cells assessed as decreased in IL-1beta mRNA production preincubated for 1 hr followed by TNF-alpha stimulation measured after 5 hrs by RT-PCR analysis; type: cell-based
[27] = biological target: Cannabinoid receptor 1 (Homo sapiens, UniProt P21554); test: Displacement of [3H]-CP-55,940 from recombinant human CB1R expressed in HEK293 cell membranes
Cannabinoid receptor 1, sequence (P21554 whole entry): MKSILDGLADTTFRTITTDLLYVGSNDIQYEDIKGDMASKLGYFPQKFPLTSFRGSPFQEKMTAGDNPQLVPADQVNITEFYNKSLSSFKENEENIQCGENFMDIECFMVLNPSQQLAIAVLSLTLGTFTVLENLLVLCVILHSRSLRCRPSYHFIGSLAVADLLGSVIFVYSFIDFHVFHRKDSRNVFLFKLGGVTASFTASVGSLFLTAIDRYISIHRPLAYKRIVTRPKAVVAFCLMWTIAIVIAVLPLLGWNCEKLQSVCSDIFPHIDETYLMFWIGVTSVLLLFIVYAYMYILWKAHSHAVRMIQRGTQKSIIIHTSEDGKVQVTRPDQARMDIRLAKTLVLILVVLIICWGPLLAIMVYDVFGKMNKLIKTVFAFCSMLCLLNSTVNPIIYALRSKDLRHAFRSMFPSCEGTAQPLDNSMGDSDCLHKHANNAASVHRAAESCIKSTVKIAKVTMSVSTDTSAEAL

CCCCN1C(=O)C(C(=O)NC23CC4CC(CC(C4)C2)C3)=C(O)C2C1C=NN2C (configuration not stated)
Activity [1]: inactive | Activity [2]: 1% | Activity [3]: 12.6% | logP [4]: 5.3 | Activity [5]: 1% | Activity [6]: 0.9% | Activity [7]: 51% | solubility kinetic [8]: 0.13 µg/mL (≈ 0.325 µM) | solubility kinetic [9]: 0.49 µg/mL (≈ 1.22 µM) | Activity [10]: Active | Ki [11]: 1.8 nM | IC50 [12]: 12500 nM | Activity [13]: Active | Activity [14]: inactive | Activity [15]: 13.9% | Activity [16]: 8.9% | Activity [17]: 68% | Activity [18]: 10.1% | EC50 [19]: 110 nM | Activity [20]: 94% | Activity [21]: 12.9% | Activity [22]: inactive | IC50 [23]: 25000 nM | pKa [24]: 8 | Activity [25]: 14.2% | Activity [26]: Active | Ki [27]: 69 nM
